# Assay results published in ChEMBL document CHEMBL1201862, “PubChem BioAssay data set” (2004).
# Activity calls are given as the source filed them.
# How the values were obtained:
# Caspase-3 = target: T1, Caspase-3 (Homo sapiens, UniProt P42574); format: functional;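 further: Dose-response selectivity test against caspase-3 for candidate inhibitors of sentrin-specific proteases (SENPs)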
# T1 sequence (P42574 whole entry): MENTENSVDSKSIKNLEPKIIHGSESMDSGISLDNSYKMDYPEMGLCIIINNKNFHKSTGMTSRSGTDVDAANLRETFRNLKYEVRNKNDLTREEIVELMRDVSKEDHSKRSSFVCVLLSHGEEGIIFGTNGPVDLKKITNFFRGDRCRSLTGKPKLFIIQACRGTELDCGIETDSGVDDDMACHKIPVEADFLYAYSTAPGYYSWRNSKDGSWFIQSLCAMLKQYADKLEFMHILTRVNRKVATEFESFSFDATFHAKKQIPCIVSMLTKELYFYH
# [1] = target: T2, Sentrin-specific protease 8 (Homo sapiens, UniProt Q96LD8); format: functional;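 further: luminescence read-out of SENP8 inhibition, dose-response confirmation following an ultra-high-throughput screen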
# T2 sequence (Q96LD8 whole entry): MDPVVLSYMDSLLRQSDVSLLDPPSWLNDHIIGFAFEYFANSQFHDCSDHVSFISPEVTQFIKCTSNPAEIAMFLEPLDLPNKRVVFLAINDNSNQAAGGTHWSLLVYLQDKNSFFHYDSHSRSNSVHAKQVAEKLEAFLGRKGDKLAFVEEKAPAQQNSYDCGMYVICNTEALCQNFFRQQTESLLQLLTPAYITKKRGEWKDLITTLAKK
# [2] = target: T3, Sentrin-specific protease 7 (Homo sapiens, UniProt Q9BQF6); format: functional;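 further: Luminescence-based dose-response confirmation of ultra-high-throughput screening hits, measuring inhibition of SENP7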
# T3 sequence (Q9BQF6 whole entry): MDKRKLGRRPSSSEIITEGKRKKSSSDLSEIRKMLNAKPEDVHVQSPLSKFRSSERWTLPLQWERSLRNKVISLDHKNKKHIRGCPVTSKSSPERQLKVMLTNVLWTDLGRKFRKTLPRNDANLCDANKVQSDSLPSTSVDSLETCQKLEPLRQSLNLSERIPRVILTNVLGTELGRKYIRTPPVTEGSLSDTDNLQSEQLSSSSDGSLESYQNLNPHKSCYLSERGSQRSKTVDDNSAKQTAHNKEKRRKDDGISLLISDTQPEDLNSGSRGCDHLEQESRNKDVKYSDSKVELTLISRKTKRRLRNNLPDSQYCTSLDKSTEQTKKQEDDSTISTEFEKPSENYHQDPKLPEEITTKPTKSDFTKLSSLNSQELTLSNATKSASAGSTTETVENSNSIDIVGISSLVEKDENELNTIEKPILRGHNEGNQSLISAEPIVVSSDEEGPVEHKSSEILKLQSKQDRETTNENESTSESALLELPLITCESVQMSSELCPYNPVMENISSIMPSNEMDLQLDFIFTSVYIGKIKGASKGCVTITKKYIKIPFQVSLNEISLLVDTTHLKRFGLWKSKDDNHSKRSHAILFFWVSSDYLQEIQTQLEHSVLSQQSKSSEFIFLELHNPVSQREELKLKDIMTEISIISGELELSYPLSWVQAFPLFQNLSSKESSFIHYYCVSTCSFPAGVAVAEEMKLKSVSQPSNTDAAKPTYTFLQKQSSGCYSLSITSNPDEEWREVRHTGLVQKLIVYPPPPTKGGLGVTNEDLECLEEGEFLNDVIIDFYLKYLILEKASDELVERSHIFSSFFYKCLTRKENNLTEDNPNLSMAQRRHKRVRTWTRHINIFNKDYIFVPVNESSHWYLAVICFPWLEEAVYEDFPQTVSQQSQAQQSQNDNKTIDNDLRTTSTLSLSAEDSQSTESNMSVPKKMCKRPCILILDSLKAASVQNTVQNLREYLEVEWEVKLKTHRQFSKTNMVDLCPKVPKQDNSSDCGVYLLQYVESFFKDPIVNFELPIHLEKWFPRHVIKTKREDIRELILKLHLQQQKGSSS
# [3] = target: T4, Rac GTPase-activating protein 1 (Homo sapiens, UniProt Q9H0H5); test: MgcRacGAP GTPase-activating activity inhibitors, confirmation, biochemical, ADP Hunter fluorescence, primary and confirmatory (AID 624330); format: functional
# T4 sequence (Q9H0H5 whole entry): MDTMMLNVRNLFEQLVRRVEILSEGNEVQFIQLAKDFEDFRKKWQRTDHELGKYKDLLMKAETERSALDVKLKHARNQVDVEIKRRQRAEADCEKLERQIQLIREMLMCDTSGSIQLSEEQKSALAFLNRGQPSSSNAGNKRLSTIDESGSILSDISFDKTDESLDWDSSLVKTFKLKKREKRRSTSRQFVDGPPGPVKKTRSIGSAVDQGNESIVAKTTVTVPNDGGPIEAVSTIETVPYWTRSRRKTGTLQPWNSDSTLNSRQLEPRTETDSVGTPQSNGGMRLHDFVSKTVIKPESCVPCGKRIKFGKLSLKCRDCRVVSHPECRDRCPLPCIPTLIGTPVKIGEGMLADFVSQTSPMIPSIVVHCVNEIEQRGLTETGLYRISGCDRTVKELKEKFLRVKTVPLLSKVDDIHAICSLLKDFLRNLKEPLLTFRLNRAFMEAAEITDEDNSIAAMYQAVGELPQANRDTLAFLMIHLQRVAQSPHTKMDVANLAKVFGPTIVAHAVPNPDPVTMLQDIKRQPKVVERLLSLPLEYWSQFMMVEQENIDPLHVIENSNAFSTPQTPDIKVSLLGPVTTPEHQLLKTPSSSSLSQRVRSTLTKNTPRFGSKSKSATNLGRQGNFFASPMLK
# [4] = HeLa cell cytotoxicity, dose response, cytotoxicity control for MgcRacGAP inhibitor project (AID 624300); format: functional
# [5] = target: T5, Sentrin-specific protease 6 (Homo sapiens, UniProt Q9GZR1); format: functional;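 further: Luminescence-based dose-response confirmatory assay of SENP6 inhibition, following up an ultra-high-throughput screen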
# T5 sequence (Q9GZR1 whole entry): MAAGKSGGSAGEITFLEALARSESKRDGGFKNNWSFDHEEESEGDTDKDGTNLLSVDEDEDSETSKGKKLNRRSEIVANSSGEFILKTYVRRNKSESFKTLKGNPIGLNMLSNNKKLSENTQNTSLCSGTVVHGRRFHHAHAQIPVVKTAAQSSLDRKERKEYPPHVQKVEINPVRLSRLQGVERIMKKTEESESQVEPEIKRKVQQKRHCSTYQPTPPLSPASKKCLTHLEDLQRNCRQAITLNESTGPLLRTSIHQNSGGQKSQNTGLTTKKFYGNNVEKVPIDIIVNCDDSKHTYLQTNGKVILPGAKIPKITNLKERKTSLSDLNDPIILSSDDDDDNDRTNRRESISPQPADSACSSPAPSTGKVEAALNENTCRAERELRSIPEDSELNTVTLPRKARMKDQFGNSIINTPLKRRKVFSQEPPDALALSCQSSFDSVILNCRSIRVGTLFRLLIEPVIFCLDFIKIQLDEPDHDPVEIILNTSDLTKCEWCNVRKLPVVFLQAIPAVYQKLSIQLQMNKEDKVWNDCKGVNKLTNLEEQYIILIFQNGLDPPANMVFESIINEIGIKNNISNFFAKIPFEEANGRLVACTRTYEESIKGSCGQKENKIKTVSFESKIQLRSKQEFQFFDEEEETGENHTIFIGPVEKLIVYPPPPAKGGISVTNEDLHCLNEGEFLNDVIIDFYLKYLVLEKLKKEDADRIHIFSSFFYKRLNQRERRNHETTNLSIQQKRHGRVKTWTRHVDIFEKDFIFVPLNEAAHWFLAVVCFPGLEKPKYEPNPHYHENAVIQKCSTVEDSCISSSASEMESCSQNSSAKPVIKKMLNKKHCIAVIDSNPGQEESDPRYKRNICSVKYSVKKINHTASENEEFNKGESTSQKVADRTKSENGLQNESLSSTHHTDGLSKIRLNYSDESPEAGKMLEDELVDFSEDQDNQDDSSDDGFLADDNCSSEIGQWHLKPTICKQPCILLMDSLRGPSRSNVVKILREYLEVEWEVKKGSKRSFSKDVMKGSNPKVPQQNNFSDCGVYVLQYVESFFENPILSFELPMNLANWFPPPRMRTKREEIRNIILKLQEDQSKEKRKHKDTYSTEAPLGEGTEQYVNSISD
# [6] = Counterscreen for inhibitors of Trypanosoma brucei methionyl tRNA synthetase (MetRS): Luminescence-based cell-based high throughput dose response assay to identify compounds that are cytotoxic to Jurkat human T lymphocyte cells.; format: functional
# [7] = target: T6, Methionyl-tRNA synthetase, putative (Trypanosoma brucei brucei, UniProt Q38C91); format: functional, Trypanosoma brucei brucei strain 927/4 GUTat10.1
# T6 sequence (Q38C91 whole entry): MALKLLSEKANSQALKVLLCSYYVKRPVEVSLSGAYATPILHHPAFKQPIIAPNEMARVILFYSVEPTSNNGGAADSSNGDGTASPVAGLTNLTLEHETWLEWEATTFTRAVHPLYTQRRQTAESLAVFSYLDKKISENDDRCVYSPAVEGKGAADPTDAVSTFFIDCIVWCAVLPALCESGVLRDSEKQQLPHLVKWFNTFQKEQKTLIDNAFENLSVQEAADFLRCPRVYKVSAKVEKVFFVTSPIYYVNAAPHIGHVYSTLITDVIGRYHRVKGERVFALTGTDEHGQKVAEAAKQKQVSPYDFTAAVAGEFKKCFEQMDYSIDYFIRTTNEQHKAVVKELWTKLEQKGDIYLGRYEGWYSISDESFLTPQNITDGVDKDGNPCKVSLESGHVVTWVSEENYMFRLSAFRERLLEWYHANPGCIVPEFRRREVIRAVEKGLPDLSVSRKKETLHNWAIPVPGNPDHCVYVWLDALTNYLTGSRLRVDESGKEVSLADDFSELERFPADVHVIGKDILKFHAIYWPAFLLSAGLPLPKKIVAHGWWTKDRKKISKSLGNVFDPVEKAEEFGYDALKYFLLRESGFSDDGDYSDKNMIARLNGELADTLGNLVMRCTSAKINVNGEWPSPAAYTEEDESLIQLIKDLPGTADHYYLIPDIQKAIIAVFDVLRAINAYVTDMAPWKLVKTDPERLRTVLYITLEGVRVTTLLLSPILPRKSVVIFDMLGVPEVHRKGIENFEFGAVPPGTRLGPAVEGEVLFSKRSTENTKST
# [8] = target: T6, Methionyl-tRNA synthetase, putative; format: functional, Trypanosoma brucei brucei strain 927/4 GUTat10.1; remark: listed apart in the source
IC50 (Caspase-3),IC50 [2],IC50 [3],IC50 [5],SMILES,IC50 [1],CC50 [4],IC50 [6],IC50 [7],IC50 [8]
25.5 µM (active),6.04 µM (active),230 µM (active),15.1 µM (active),COc1ccc(NC(=O)n2ncc3cc(Cl)ccc32)cc1OC,20.3 µM (active),100 µM (active),–,–,–
–,–,–,–,Cc1ccc(NC(=O)C=NOCC(=O)Nc2cc(C)cc(C)c2)cc1,–,–,83.3 µM (inactive),8.66 µM (active),119 µM (inactive)
